Where two headings read alike, the source gives them in different places.

Usually inhibition stands for how much of the control response was suppressed.

Assay in all cases: ProQinase kinase panel, % inhibition at fixed concentration
Format in all cases: biochemical

One assay deals with MET (Homo sapiens, UniProt P08581). The following applies: read-out: MET percentage of inhibition. The procedure: (§1) Once compounds 7 and 8 were synthesized, a pairwise comparison was performed to strictly evaluate the real impact of this fragment-hopping where imidazopyridazine is replaced by triazolopyridine.
The next assay concerns the target DYRK1A (Homo sapiens, UniProt Q13627). The following applies: for inhibition at 10 µM: inhibitor at 10 µM, average of two data points, read-out: DYRK1A percentage of inhibition. The procedure: as §1
The target in a further assay is CK1-α1 (Homo sapiens, UniProt P48729). Particulars: for inhibition at 10 µM: inhibitor at 10 µM, average of two data points, read-out: CK1-α1 percentage of inhibition. The procedure:
as §1

Another assay deals with EGF-R (Homo sapiens, UniProt P00533). Particulars: for inhibition at 10 µM: read-out: EGF-R percentage of inhibition. The procedure: as §1
Chain of EGF-R (P00533 25-1210, species assumed): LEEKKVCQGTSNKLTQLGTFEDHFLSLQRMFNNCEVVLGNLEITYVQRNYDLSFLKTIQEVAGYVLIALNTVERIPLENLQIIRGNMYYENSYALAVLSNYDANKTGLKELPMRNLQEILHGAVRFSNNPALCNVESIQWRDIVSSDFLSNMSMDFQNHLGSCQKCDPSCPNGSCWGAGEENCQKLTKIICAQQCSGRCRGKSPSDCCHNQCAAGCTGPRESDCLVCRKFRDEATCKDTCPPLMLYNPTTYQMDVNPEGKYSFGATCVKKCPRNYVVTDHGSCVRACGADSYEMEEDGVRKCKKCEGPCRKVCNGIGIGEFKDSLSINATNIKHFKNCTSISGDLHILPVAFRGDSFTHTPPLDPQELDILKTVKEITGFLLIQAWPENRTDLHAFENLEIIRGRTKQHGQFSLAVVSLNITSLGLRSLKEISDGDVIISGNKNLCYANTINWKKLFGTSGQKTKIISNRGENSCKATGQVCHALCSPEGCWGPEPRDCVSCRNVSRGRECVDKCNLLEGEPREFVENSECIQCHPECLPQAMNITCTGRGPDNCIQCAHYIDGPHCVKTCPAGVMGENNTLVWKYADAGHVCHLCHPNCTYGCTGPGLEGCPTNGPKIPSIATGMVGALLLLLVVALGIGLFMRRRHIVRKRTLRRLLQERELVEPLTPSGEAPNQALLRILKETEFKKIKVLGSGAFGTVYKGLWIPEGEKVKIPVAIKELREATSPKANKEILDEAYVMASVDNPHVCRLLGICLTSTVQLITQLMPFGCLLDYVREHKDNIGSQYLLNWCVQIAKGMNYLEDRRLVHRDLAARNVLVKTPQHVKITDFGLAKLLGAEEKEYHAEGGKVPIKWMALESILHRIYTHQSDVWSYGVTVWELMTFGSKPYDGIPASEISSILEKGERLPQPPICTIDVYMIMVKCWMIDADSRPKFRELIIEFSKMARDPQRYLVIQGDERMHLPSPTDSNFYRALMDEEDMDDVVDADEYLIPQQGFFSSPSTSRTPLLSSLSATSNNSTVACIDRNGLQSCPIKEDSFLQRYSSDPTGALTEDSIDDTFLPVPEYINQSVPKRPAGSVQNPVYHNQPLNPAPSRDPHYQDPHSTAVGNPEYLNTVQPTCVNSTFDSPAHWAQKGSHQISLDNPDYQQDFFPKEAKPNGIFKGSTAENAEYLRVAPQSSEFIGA
In the next assay the target is JAK2 (Homo sapiens, UniProt O60674). Particulars: inhibitor at 10 µM; average of two data points; read-out: JAK2 percentage of inhibition. The procedure: as §1
A further assay deals with B-RAF-V600E (Homo sapiens, UniProt P15056, V600E). Particulars: for inhibition at 10 µM: read-out: B-RAF-V600E percentage of inhibition. The procedure:
as §1

The target in a further assay is FGF-R1 (Homo sapiens, UniProt P11362). The following applies: for inhibition at 10 µM: inhibitor at 10 µM, average of two data points, read-out: FGF-R1 percentage of inhibition. The procedure:
as §1

The target in another assay is T1, SGK1 (Homo sapiens, UniProt O00141).
T1 sequence (O00141 1-431): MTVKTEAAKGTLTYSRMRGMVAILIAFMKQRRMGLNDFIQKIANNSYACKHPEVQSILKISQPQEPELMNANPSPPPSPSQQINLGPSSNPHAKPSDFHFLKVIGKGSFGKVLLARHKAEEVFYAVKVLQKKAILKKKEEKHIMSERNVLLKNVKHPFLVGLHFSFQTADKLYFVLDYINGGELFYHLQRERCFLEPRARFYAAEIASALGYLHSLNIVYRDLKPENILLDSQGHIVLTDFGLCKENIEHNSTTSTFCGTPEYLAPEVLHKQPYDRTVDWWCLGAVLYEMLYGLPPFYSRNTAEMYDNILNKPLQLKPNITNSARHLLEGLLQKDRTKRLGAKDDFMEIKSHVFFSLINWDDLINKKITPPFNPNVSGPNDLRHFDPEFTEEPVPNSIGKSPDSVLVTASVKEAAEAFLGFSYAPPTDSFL
Particulars: for inhibition at 10 µM: inhibitor at 10 µM, average of two data points, read-out: SGK1 percentage of inhibition. The procedure:
as §1

The target in the next assay is T2, MST1 (Homo sapiens, UniProt Q13043).
T2 sequence (Q13043 1-487): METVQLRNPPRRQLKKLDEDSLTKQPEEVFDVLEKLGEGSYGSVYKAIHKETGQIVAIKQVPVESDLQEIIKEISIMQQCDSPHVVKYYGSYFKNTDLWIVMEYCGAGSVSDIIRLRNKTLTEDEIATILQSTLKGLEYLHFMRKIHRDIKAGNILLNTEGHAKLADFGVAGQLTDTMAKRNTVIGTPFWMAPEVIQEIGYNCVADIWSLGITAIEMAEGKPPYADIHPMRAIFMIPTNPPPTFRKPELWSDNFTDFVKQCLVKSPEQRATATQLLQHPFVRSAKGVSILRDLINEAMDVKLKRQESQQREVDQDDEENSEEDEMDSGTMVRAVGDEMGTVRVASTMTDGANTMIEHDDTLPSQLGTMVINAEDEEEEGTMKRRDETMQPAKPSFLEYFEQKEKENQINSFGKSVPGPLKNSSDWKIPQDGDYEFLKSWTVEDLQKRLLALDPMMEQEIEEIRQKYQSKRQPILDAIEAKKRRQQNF
Particulars: for inhibition at 10 µM: inhibitor at 10 µM, average of two data points, read-out: MST1 percentage of inhibition. The procedure:
as §1

The target of a further assay is AKT1 (Homo sapiens, UniProt P31749). Particulars: read-out: AKT1 percentage of inhibition. The procedure: as §1
Another assay has as its target PDGFR-α (Homo sapiens, UniProt P16234). The following applies: for inhibition at 10 µM: read-out: PDGFR-α percentage of inhibition. The procedure: as §1
The next assay has as its target RPS6KA1 (Homo sapiens, UniProt Q15418). The following applies: for inhibition at 10 µM: read-out: RPS6KA1 percentage of inhibition. The procedure: as §1
For the next assay, the target named is IGF1-R (Homo sapiens, UniProt P08069). Particulars: read-out: IGF1-R percentage of inhibition. The procedure: as §1
Another assay deals with T3, ARK5 (Homo sapiens, UniProt O60285).
T3 sequence (O60285 1-661): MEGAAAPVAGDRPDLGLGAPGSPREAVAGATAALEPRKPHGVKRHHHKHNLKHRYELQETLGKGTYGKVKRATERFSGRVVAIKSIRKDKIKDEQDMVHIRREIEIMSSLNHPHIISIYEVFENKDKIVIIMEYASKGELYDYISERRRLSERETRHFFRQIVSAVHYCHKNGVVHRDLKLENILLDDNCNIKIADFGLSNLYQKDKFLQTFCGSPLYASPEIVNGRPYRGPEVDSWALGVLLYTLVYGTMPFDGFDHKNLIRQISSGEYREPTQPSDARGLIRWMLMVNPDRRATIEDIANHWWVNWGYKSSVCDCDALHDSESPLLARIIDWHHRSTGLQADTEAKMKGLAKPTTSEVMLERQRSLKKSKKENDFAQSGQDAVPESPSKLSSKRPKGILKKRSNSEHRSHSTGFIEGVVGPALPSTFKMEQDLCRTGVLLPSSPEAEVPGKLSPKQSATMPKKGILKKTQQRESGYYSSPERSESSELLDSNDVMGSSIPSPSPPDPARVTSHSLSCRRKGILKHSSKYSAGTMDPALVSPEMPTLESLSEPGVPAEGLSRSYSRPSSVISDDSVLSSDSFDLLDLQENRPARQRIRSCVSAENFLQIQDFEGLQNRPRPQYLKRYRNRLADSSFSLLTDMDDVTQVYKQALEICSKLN
The following applies: for inhibition at 10 µM: read-out: ARK5 percentage of inhibition. The procedure:
as §1

The next assay has as its target PAK1 (Homo sapiens, UniProt Q13153). Particulars: read-out: PAK1 percentage of inhibition. The procedure:
as §1

Setting [1] is: inhibitor at 10 µM, average of two data points.
Where [2] appears, read: compound 7 vs compound 1, 10 µM.

Chain of PDGFR-α (P16234 24-1089, species assumed): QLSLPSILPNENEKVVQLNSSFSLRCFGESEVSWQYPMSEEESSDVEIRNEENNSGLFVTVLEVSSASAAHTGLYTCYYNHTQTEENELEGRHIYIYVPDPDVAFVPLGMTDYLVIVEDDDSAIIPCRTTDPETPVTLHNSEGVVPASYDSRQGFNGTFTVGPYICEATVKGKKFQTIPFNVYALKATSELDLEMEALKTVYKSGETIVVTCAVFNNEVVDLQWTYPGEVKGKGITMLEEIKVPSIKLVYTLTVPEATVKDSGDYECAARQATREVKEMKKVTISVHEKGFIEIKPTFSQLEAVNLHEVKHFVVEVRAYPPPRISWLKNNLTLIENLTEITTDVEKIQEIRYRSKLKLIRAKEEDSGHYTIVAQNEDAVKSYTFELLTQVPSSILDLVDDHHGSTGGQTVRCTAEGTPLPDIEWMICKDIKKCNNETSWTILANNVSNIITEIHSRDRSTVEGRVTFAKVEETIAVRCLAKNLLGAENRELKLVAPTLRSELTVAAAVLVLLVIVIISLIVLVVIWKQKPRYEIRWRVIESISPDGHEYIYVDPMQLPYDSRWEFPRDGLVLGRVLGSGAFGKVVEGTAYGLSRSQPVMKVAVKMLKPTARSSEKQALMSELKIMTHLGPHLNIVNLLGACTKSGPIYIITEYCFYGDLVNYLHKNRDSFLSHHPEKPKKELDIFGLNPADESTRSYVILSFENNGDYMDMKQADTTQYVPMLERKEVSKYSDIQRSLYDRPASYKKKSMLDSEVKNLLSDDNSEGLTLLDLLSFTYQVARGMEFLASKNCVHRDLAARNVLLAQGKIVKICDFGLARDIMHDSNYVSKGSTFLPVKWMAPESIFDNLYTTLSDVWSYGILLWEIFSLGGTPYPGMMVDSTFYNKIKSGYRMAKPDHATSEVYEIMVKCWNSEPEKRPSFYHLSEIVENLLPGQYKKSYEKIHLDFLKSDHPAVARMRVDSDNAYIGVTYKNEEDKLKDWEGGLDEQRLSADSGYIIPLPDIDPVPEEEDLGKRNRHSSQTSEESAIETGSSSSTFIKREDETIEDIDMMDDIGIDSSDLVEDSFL
Chain of B-RAF-V600E (P15056 whole entry V600E): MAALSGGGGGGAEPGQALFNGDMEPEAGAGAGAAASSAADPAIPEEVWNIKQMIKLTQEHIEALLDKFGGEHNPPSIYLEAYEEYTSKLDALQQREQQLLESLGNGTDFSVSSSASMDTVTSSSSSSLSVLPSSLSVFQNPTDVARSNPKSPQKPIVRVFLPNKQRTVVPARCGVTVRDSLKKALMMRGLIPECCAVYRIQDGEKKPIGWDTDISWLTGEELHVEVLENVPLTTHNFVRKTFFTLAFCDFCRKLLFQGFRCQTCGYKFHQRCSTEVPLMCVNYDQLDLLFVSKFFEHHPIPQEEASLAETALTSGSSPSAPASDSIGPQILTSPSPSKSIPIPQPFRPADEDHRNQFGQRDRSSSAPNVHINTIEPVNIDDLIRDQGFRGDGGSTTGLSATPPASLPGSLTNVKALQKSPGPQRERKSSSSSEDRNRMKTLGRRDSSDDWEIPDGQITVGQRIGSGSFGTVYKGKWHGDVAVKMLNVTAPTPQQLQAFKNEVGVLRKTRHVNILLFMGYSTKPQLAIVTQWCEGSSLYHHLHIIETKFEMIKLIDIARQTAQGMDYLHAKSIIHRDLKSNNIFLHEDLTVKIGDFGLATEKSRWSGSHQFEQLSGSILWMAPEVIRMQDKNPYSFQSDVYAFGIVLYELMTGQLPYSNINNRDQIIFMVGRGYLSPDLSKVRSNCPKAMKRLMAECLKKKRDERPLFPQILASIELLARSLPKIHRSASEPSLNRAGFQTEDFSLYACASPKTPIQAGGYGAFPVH
Chain of FGF-R1 (P11362 22-822, species assumed): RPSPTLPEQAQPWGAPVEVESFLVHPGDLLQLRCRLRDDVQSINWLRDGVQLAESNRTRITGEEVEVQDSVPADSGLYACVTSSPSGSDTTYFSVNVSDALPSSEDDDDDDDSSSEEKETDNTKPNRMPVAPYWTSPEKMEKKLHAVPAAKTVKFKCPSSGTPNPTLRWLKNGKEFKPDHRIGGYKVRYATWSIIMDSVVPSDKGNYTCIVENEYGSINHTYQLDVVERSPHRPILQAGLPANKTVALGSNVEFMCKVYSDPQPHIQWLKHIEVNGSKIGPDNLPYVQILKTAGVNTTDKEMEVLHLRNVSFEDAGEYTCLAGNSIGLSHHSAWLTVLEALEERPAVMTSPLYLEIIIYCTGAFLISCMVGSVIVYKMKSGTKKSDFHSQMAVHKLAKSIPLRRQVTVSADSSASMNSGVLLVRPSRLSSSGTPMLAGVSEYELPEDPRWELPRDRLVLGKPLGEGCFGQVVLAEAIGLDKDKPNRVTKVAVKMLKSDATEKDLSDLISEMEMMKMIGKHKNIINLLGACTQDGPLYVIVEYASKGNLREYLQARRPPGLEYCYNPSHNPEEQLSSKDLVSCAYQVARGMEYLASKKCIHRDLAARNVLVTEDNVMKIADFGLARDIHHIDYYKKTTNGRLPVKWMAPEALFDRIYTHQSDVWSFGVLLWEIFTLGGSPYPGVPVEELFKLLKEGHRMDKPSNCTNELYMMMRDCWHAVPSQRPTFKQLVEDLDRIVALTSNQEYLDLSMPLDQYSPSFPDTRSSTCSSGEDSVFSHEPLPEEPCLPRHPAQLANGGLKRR
Chain of RPS6KA1 (Q15418 whole entry, species assumed): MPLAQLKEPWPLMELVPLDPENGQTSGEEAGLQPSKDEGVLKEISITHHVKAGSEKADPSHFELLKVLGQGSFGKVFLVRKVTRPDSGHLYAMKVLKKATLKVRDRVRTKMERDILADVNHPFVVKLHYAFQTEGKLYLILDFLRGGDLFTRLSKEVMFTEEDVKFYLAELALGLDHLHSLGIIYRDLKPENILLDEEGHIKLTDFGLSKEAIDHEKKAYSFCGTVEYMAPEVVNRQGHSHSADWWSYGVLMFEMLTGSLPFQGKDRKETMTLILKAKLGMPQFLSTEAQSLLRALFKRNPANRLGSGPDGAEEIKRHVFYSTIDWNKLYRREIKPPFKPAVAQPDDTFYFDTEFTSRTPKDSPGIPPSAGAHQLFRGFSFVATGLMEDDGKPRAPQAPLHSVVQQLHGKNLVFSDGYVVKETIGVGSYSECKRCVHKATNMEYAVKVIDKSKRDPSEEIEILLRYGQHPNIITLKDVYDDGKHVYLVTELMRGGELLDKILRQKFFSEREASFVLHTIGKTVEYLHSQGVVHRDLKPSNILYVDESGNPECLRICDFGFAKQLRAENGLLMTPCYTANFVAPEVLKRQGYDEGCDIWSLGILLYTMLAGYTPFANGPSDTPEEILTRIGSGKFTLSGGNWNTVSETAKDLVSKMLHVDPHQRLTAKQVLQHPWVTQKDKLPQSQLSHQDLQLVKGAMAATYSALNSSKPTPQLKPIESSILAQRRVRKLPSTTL
Chain of CK1-α1 (P48729 whole entry): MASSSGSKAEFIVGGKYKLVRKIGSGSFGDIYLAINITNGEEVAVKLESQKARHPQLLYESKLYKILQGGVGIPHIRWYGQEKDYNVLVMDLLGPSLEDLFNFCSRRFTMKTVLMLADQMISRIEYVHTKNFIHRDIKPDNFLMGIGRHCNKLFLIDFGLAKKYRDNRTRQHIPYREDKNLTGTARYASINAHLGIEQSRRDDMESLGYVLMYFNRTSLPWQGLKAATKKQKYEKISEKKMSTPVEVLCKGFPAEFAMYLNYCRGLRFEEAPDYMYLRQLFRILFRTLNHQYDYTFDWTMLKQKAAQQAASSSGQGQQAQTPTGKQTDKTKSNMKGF

As for `CN1CCC(CNc2ccc3ncc(-c4cccc(OC(F)(F)F)c4)n3n2)CC1` [Compound 3, reference compound], the inhibition at 10 µM at MET is 12%; at DYRK1A, 19%; at CK1-α1 it was 0%; on EGF-R, 32%; on JAK2 it was 3%; at B-RAF-V600E, 41%. The inhibition at 10 µM amounted to 65% on FGF-R1; 55% at SGK1; 60% at MST1; 0% on AKT1; 92% at PDGFR-α; 48% at RPS6KA1. Besides, the inhibition at 10 µM was 53% on IGF1-R and 42% on ARK5. In addition, the inhibition at 5 µM at PAK1 was 8%.

As to `Oc1ccc(-n2nnc3ccc(NCc4ccc(F)cc4)nc32)cc1` [Compound 7, 4-[5-(4-Fluoro-benzylamino)-[1], [2], [3]triazolo[4,5-b]pyridin-3-yl]-phenol], the inhibition at 10 µM on MET (setting [1]) was 21%; on DYRK1A, over 70%; at CK1-α1, 8%; on EGF-R (setting [1]), 8%; at JAK2, 30%; on B-RAF-V600E (setting [1]), 8%. Moreover, the inhibition at 10 µM on FGF-R1 came to 19%; at SGK1 it was 12%; on MST1, 29%; at AKT1 (setting [1]), 0%; at PDGFR-α (setting [1]) it was 53%; on RPS6KA1 (setting [1]) it was 45%. For the same compound, the inhibition at 10 µM on IGF1-R (setting [1]) was found to be 9%; at ARK5 (setting [1]) it was 13%; on PAK1 (setting [1]), 5%. The “DYRK1A reduction of percentage of inhibition” value on DYRK1A (compound 7 compared to compound 1, 10 µM) is given as “more than 25%”. The “DYRK1A improvement in percentage of inhibition” value at DYRK1A (setting [2]) is “b (This designation indicates that the improvement in percentage of inhibition was equal or greater than 25%)”. Further, on CK1-α1 (setting [2]), the “CK1-α1 improvement in percentage of inhibition” value is on record as “b (This designation indicates that the improvement in percentage of inhibition was equal or greater than 25%)”. Moreover, the “EGF-R improvement in percentage of inhibition” value on EGF-R (setting [2]) was “b (This designation indicates that the improvement in percentage of inhibition was equal or greater than 25%)”. For the same compound, the “B-RAF-V600E improvement in percentage of inhibition” value at B-RAF-V600E (setting [2]) is “b (This designation indicates that the improvement in percentage of inhibition was equal or greater than 25%)”. Besides, the “FGF-R1 improvement in percentage of inhibition” value at FGF-R1 (setting [2]) was “c (This designation indicates that the improvement in percentage of inhibition was equal or greater than 50%)”. Moreover, the “SGK1 improvement in percentage of inhibition” value at SGK1 (setting [2]) is recorded as “c (This designation indicates that the improvement in percentage of inhibition was equal or greater than 50%)”. Besides, the “MST1 improvement in percentage of inhibition” value on MST1 (setting [2]) was “c (This designation indicates that the improvement in percentage of inhibition was equal or greater than 50%)”. Further, the “PDGFR-α improvement in percentage of inhibition” value at PDGFR-α (setting [2]) is “b (This designation indicates that the improvement in percentage of inhibition was equal or greater than 25%)”. The “RPS6KA1 improvement in percentage of inhibition” value on RPS6KA1 (setting [2]) is “c (This designation indicates that the improvement in percentage of inhibition was equal or greater than 50%)”. The “ARK5 improvement in percentage of inhibition” value at ARK5 (setting [2]) was “c (This designation indicates that the improvement in percentage of inhibition was equal or greater than 50%)”.

These data come from paper PMC3480357, “Fragment-Hopping-Based Discovery of a Novel Chemical Series of Proto-Oncogene PIM-1 Kinase Inhibitors” (PLoS ONE, 2012).
